Results from patent US6867207B2, “IL-5 inhibiting 6-azauracil derivatives” (Janssen Pharmaceutica N.V., priority 1997, dated 2005).

Tests used:
IL-5 production = assay: In vitro inhibition of IL-5 production in human blood (phytohemagglutinin-stimulated whole blood, ELISA);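 as to all read-outs here: values marked with an asterisk were tested at 10 µM and unmarked values at 1 µM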; format: cell-based; details: test dose 1×10^−6 M, 48 hours; for inhibition at 1 µM: read-out: % inh. (percentage inhibition of IL-5 production)
Outline: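 Heparinised blood from healthy male donors, diluted threefold in RPMI 1640, preincubated 60 min at 37° C with compound (0.02% DMSO vehicle), then stimulated with 2 μg/mL phytohemagglutinin for 48 h. Supernatant IL-5 measured by ELISA; percentage inhibition at 1×10^−6 M or 1×10^−5 M.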

Compound	inhibition at 1 µM (IL-5 production) [%]	melting point [°C]	% inh. (percentage inhibition of IL-5 production) (IL-5 production) [%]
NCc1sc(C(c2ccc(Cl)cc2)c2c(Cl)cc(-n3ncc(=O)[nH]c3=O)cc2Cl)nc1-c1ccccc1 (racemic) [Compound 329, (±)-2-[4-[[5-(aminomethyl)-4-phenyl-2-thiazolyl](4-chlorophenyl)methyl]-3,5-dichlorophenyl]-1,2,4-triazine-3,5(2H,4H)-dione]	88	170	–
O=c1cnn(-c2ccc(C(c3ccc(Cl)cc3)c3nc(-c4ccccc4)cs3)c(Cl)c2)c(=O)[nH]1 (racemic) [Compound 419, (±)-2-[3-chloro-4-[(4-chlorophenyl)(4-phenyl-2-thiazolyl)methyl]phenyl]-1,2,4-triazine-3,5(2H,4H)-dione]	5	90	–
O=c1cnn(-c2cc(Cl)c(C(c3ccc(Cl)cc3)c3nc(-c4ccccc4)no3)c(Cl)c2)c(=O)[nH]1 (racemic) [Compound 429, (±)-2-[3,5-dichloro-4-[(4-chlorophenyl)(3-phenyl-1,2,4-oxadiazol-5-yl)methyl]phenyl]-1,2,4-triazin-3,5(2H,4H)-dione]	78	128	–
O=C(CO)Nc1ccccc1-c1nnc(C(c2ccc(Cl)cc2)c2c(Cl)cc(-n3ncc(=O)[nH]c3=O)cc2Cl)o1 (racemic) [Compound 213, (±)-N-[2-[5-[(4-chlorophenyl)[2,6-dichloro-4-(4,5-dihydro-3,5-dioxo-1,2,4-triazin-2(3H)-yl)phenyl]methyl]-1,3,4-oxadiazol-2-yl]phenyl]-2-hydroxyacetamide]	32	235	–
CN(C)Cc1sc(C(c2ccc(Cl)cc2)c2c(Cl)cc(-n3ncc(=O)[nH]c3=O)cc2Cl)nc1-c1ccccc1F (racemic) [Compound 325, (±)-2-[4-[(4-chlorophenyl)[5-[(dimethylamino)methyl]-4-(2-fluorophenyl)-2-thiazolyl]methyl]-3,5-dichlorophenyl]-1,2,4-triazine-3,5(2H,4H)-dione]	95	250	–
CN(C)C(=O)c1sc(C(c2ccc(Cl)cc2)c2c(Cl)cc(-n3ncc(=O)[nH]c3=O)cc2Cl)nc1-c1ccccc1 (racemic) [Compound 303, (±)-N,N-dimethyl-2-[(4-chlorophenyl)[2,6-dichloro-4-(4,5-dihydro-3,5-dioxo-1,2,4-triazin-2(3H)-yl)phenyl]methyl]-4-phenylthiazol-5-carboxamide]	85	150	–
O=C(O)c1sc(C(c2ccc(Cl)cc2)c2c(Cl)cc(-n3ncc(=O)[nH]c3=O)cc2Cl)nc1-c1ccccc1 (racemic) [Compound 299, (±)-2-[(4-chlorophenyl)[2,6-dichloro-4-(4,5-dihydro-3,5-dioxo-1,2,4-triazin-2(3H)-yl)phenyl]-methyl]-4-phenyl-5-thiazolcarboxylic acid]	38	206	–
O=c1cnn(-c2cc(Cl)c(C(c3ccc(Cl)cc3)c3cnc(-c4ccccc4)s3)c(Cl)c2)c(=O)[nH]1 (racemic) [Compound 142]	–	–	80
O=c1cnn(-c2ccc(C(c3ccc(Cl)cc3)c3cnc(-c4ccccc4)s3)c(Cl)c2)c(=O)[nH]1 (racemic) [Compound 141]	–	–	64
CCCc1nnc(C(c2ccc(Cl)cc2)c2c(Cl)cc(-n3ncc(=O)[nH]c3=O)cc2Cl)o1 (racemic) [Compound 164]	–	–	84
CCc1sc(C(c2ccc(Cl)cc2)c2c(Cl)cc(-n3ncc(=O)[nH]c3=O)cc2Cl)nc1-c1cccc(F)c1 (racemic) [Comp 260]	–	–	98
CS(=O)(=O)O.O.O.O=c1cnn(-c2cc(Cl)c(C(Sc3nccc(N4CCOCC4)n3)c3ccc(Cl)cc3)c(Cl)c2)c(=O)[nH]1 (racemic) [Compound 344]	–	–	82
O=c1cnn(-c2cc(Cl)c(C(c3ccc(Cl)cc3)c3sc(-c4ccccc4)nc3-c3ccccc3Cl)c(Cl)c2)c(=O)[nH]1 (racemic) [Compound 145]	–	–	37
Cc1sc(SC(c2ccc(Cl)c(C(F)(F)F)c2)c2c(Cl)cc(-n3ncc(=O)[nH]c3=O)cc2Cl)nc1-c1ccccc1 (racemic) [Compound 405]	–	–	80
